Experiment: Oral bioavailability study with 13C-labeled PPI-1050: labeled glycerolipids in serum
Format: in vivo, mouse
Conditions: wild-type C57Bl/6 mice
Protocol: A ^13C-labeled version of PPI-1040, called PPI-1050, was generated to evaluate the ability of the intact compound to cross the gut boundary and enter the bloodstream intact. PPI-1050 contains carbon-13 labels on the three glycerol carbons and 3 carbons of the sn-1 palmitic acid. Wild-type C57/Bl6 mice were treated with a single oral dose of 100 mg/kg PPI-1050 (formulated in Neobee-M5 with 0.1% thioglycerol) or vehicle. Animals were then sacrificed and blood harvested by cardiac puncture at 1, 3 and 6 hours post-treatment (n=3). Serum was then analyzed for presence of incorporation of the label into glycerolipids. Serum extraction was performed on 20 μL aliquots in 1.4 ml Thermo matrix tubes. […] A 100 μL aliquot of the ethyl acetate layer was analyzed using FI-MS/MS on a API4000™ mass spectrometer (Applied Biosystems) coupled with Agilent 1100 HPLC pump and auto sampler. […] The parent PlsEtn mass was determined by incorporating the intact number of 13C labels in the predicted parent together with the corresponding daughter ion (sn2 fatty acid loss) to obtain the quantitative MS/MS transition pair. To confirm the ethanolamine group remained intact upon absorption we also analyzed serum for the presence of labeled alkyl-acyl and vinyl-acyl glycerols using FI-MS/MS analysis in positive mode. All transitions measured can be found in Table 1 below. […]

intact compound with closed phosphoethanolamine ring in serum (single oral dose 100 mg/kg PPI-1050, 1, 3, 6 hours): not detectable in any samples
Structure (SMILES): CC/C=C\C/C=C\C/C=C\C/C=C\C/C=C\C/C=C\CCC(=O)OC(CO/C=C\CCCCCCCCCCCCCC)COP1(=O)NCCO1 (centres unmarked) [PPI-1040, 1-(((Z)-hexadec-1-en-1-yl)oxy)-3-((2-oxido-1,3,2-oxazaphospholidin-2-yl)oxy)propan-2-yl (4Z,7Z,10Z,13Z,16Z,19Z)-docosa-4,7,10,13,16,19-hexaenoate]
oral bioavailability (single oral dose 100 mg/kg PPI-1050): orally bioavailable and crossed the gut lining intact
